Data: patent publication US20240366543A1, “METHODS OF TREATING METHYLMALONIC ACIDEMIA AND PROPIONIC ACIDEMIA” (HemoShear Therapeutics, Inc., priority 2021, published 2024)
Values after ≈ are worked out from the molar mass of the structure shown. Values joined by “and” are separate entries in the source; they are usually repeats but may differ in a detail not shown here. Equal values may be shown once.

Assays:
PA pHeps = assay: Static cell culture, PA pHeps, low/high propiogenic media; format: cell-based, human; conditions: for % change at 30 μM, 13C-Propionyl-CoA (13C-P-CoA): static cell culture; for Percent change (30 μM), 12C-Acetyl-CoA / Percent change (30 μM), CoASH: static culture 1.5 h
Experimental: (§1) Unlike the HemoShear Technology, this assay is carried out without constant perfusion, utilizing cell culture media that was customized to mimic plasma levels of propiogenic sources (amino acids and ketoacids) in PA and MMA patients during periods of relative metabolic stability (low propiogenic media) and acute metabolic crisis (high propiogenic media). PA and MMA pHeps, in static cell culture, were treated with Compound 5 (concentrations ranging from 0.1 μM to 100 μM) for 30 minutes in low propiogenic media, followed by either a continuation of low propiogenic media or a switch to the high propiogenic media for 1 hour. The media used during the 1-hour incubation contained propiogenic SIL amino acids and ketoacids which are metabolized into labeled P-CoA and M-CoA in the cells. The SIL amino acids and ketoacids were a mix of ^13C and MeD8 labelling, but their catabolism produced a SIL P-CoA (denoted as ^13C—P-CoA for simplicity) with the same mass, independent of the type of SIL (also true for ^13C-M-CoA).

[1] = system: primary hepatocytes of methylmalonic acidemia patients; assay: Propionyl-CoA and methylmalonyl-CoA from 13C-labelled sources in MMA primary hepatocytes (Example 2); format: cell-based, human
Experimental: Primary hepatocytes isolated from livers of methylmalonic acidemia patients are treated with increasing doses of Compound 5 (0, 0.1, 0.3, 1, 3, 10, 30, 100 µM) for 30 min. After 30 minutes the cells are challenged with the different sources of P-CoA, which may include 13C-KIVA (1 mM), ^13C-isoleucine (3 mM), ^13C-threonine (5 mM), ^13C-methionine (5 mM), ^13C-heptanoate (100 μM), or ^13C-propionate (5 mM) for 60 minutes. At the end of the challenge period, media is removed and the cells are lysed with 70% MeCN and 0.1% TFA containing 100 μM of ethymalonyl-CoA as an internal standard and harvested. Cell lysates are processed for HTMS/MS analysis.

MMA pHeps = assay: Static cell culture, MMA pHeps, low/high propiogenic media; format: cell-based, human; conditions: for Percent change (30 μM), 12C-Acetyl-CoA / Percent change (30 μM), CoASH: static culture 1.5 h
Experimental: as §1

[2] = system: Hepatocytes from propionic academia patients; assay: Ureagenesis (15N-urea) in HemoShear REVEAL-Tx technology (Example 3); format: cell-based, human; conditions: PA primary hepatocytes, treated day 5 to day 7, 15N-NH4Cl 4 hrs
From the text: (§2) For this experiment, we deployed the HemoShear REVEAL-Tx™ technology, which is based on the cone-and-plate configuration or viscometer combined with a porous polycarbonate membrane that mimics a filtering layer of sinusoidal endothelial cells (see: Dash A, Deering TG, Marukian S, et al. Physiological Hemodynamics and Transport Restore Insulin and Glucagon Responses in a Normal Glucose Milieu in Hepatocytes In Vitro. 73rd Scientific Sessions of the American Diabetes Association, 2013 (Chicago), and U.S. Pat. Nos. 7,811,782 and 9,500,642, and 9,617,521, each of which is incorporated by reference herein in its entirety).
Hepatocytes from propionic academia patients are plated in a collagen gel sandwich on one side of the membrane replicating the polarized orientation found in vivo within the hepatic sinusoids. On the other side, medium is continuously perfused and surface shear rates are applied across a range of physiological values derived from sinusoidal flow rates in vivo while also controlling transport in the system with in- and out-flow tubing to each compartment. […]
Hepatocytes are treated with increasing doses of Compound 5 (0, 0.1, 0.3, 1, 3, 10, 30, 100 μM) in the HemoShear REVEAL-Tx™ technology from day 5 to day 7. […] After 4 hrs, cells are washed 2× in saline solution and lysed, scraped and harvested using 80% methanol. ^15N-urea is measured by GCMSMS.

[3] = system: primary hepatocyte model of isovaleric acidemia; assay: Isovaleryl-CoA from 13C-leucine in primary hepatocyte model of isovaleric acidemia (Example 4); format: cell-based; conditions: primary hepatocytes with/without isovaleryl-CoA dehydrogenase inhibitor
Experimental: Primary hepatocytes are treated with increasing doses of Compound 5 (0, 0.1, 0.3, 1, 3, 10, 30, 100 μM) with and without an inhibitor for isovaleryl-CoA dehydrogenase for 30 min. After 30 min the cells are challenged with 13C-leucine. At the end of the challenge period, media is removed and the cells are lysed with 70% MeCN and 0.1% TFA containing 100 μM of ethymalonyl-CoA as an internal standard and harvested. Cell lysates are processed for HTMS/MS analysis.

[4] = system: primary hepatocytes (pHeps) from PA donors; assay: HemoShear REVEAL-Tx Technology, PA pHeps; format: cell-based, human
From the text: as §2
Hepatocytes from propionic academia patients are plated in a collagen gel sandwich on one side of the membrane replicating the polarized orientation found in vivo within the hepatic sinusoids. On the other side, medium is continuously perfused and surface shear rates are applied across a range of physiological values derived from sinusoidal flow rates in vivo while also controlling transport in the system with in- and out-flow tubing to each compartment. Effectively, this creates a flow-based culture system where hepatocytes are shielded from direct effects of flow, as they would be in vivo, but perfusion, nutrient gradients, and interstitial fluid movement are maintained.
Biomarker levels are normalized to cell counts and cell volume to account for differences in the number of cells plated for each donor. […] This is most likely due to the presence of ^12C-succinyl-CoA in the sample, which has the same mass. In experiments described below, M-CoA is labeled with ^13C to determine a more accurate percent reduction. Compound 5 reduced the C3 concentration and the C3/C2 ratio with an EC50 similar to that for the reduction in P-CoA (FIGS. 3C, 3D).

[5] = system: primary hepatocytes of propionic acidemia patients; assay: Propionyl-CoA from 13C-labelled sources in PA primary hepatocytes (Example 1); format: cell-based, human; conditions: 0-100 μM
Experimental: Primary hepatocytes isolated from livers of propionic acidemia patients are treated with increasing doses of Compound 5 (0, 0.1, 0.3, 1, 3, 10, 30, 100 μM) for 30 minutes. After 30 minutes the cells are challenged with the different sources of P-CoA, which may include 13C-KIVA (1 mM), 13C-isoleucine (3 mM), 13C-threonine (5 mM), 13C-methionine (5 mM), 13C-heptanoate (100 μM), or 13C-propionate (5 mM) for 60 minutes. At the end of the challenge period, media is removed and the cells are lysed with 70% MeCN and 0.1% TFA containing 100 μM of ethymalonyl-CoA as an internal standard and harvested. Cell lysates are processed for HTMS/MS analysis.

[6] = system: primary hepatocytes (pHeps) from MMA donors; assay: HemoShear REVEAL-Tx Technology, MMA pHeps; format: cell-based, human
[7] = static cell culture, high propiogenic media
[8] = static cell culture, low propiogenic media
[9] = PA pHeps, HemoShear Technology, average ± SD
[10] = PA pHeps, HemoShear Technology, exposed 6 days

## CCC(C)(C)C(=O)O [Compound 5, 2,2-dimethylbutyric acid]
PA pHeps; high propiogenic media
  % change at 30 μM, 13C-Propionyl-CoA (13C-P-CoA): −85.3±9.1%
  Percent change (30 μM), 12C-Acetyl-CoA: −27 ± 3.4%
  Percent change (30 μM), CoASH: −48 ± 14.3%
PA pHeps; low propiogenic media
  % change at 30 μM, 13C-Propionyl-CoA (13C-P-CoA): −76.4±12.6%
  Percent change (30 μM), 12C-Acetyl-CoA: −36.6 ± 13.5%
  Percent change (30 μM), CoASH: −55.2 ± 7.1%
[1]
  intracellular propionyl-CoA and methylmalonyl-CoA from all sources investigated: dose-dependent reduction
MMA pHeps; [7]
  % change at 30 μM, 13C-Methymalonic acid: −91 ± 4%
  % change at 30 μM, 13C-Propionyl-CoA (13C-P-CoA): −75.9±7.3%
MMA pHeps; [8]
  % change at 30 μM, 12C-Methylmalonyl-CoA (13C-M-CoA): −76.5±13.2%
  % change at 30 μM, 13C-Methymalonic acid: −83.2 ± 5^ %
  % change at 30 μM, 13C-Propionyl-CoA (13C-P-CoA): −77.6±9.8%
MMA pHeps; high propiogenic media
  Percent change (30 μM), 12C-Acetyl-CoA: −14.6 ± 12.6%
  Percent change (30 μM), CoASH: −28.7 ± 7.3%
MMA pHeps; low propiogenic media
  Percent change (30 μM), 12C-Acetyl-CoA: −35.5 ± 18.1%
  Percent change (30 μM), CoASH: −47.7 ± 13.4%
[2]
  15N-urea (ureagenesis): dose-dependent increase
[3]
  intracellular isovaleryl-CoA derived from 13C-leucine: dose-dependent reduction
[4]; HemoShear Technology, PA and MMA pHeps, 6 days
  EC50 value for CoASH relative to EC50 value for reduction in disease biomarkers: 10 fold
[4]; Homo sapiens, Hepatocyte, exposure threshold used for comparison with clinical PK, read-out: estimated in vitro EC90
  EC90: 2.32 mg/L (≈ 20 µM)
[4]; PA pHeps, HemoShear Technology, 30 μM
  average reduction in the C3/C2 ratio (log 2 fold change): −2.1±1.2 log 2 fold change
[4]; [9]
  % change at 30 μM, 2-Methylcitric acid (2MC): −78.6±12.9%
  % change at 30 μM, 12C-Acetyl-Carnitine (C2): 54 ± 80.6%
  % change at 30 μM, 12C-Propionyl-Carnitine (C3): −68.9±14.6% and −69.4 ± 16.2%
  % change at 30 μM, 12C-Propionyl-CoA (P-CoA): −78.8±10.9%
[4]; [10]
  Percent change at 30 μM, 12C-Acetyl-CoA: 54 ± 80.6%
  Percent change at 30 μM, CoASH: −31.3 ± 24.2%
[5]
  intracellular propionyl-CoA from all sources investigated: dose-dependent reduction
[6]; 30 μM
  average reduction in the C3/C2 ratio (log 2 fold change): −2.2±0.2 log 2 fold change
[6]; average ± SD
  % change at 30 μM, 2-Methylcitric acid (2MC): −66.7±14.9%
  % change at 30 μM, 12C-Acetyl-Carnitine (C2): 44.6 ± 26.8%
  % change at 30 μM, 12C-Methylmalonyl-CoA (M-CoA): −55±6.6%
  % change at 30 μM, 12C-Propionyl-Carnitine (C3): −65.9±10.7%
  % change at 30 μM, 12C-Propionyl-CoA (P-CoA): −74.2±11.6%
[6]; exposed 6 days
  Percent change at 30 μM, 12C-Acetyl-CoA: 13.5 ± 24.9%
  Percent change at 30 μM, CoASH: −22.3 ± 22.3%
